Twelve compounds from patent publication US20100098690A1, “PHARMACEUTICAL COMPOSITION” (KYOWA HAKKO KIRIN CO., LTD., priority 2007, published 2010) can be followed below.

Assay [1] relates to human multiple myeloma cell line (NCI-H929). The experiment in a line: In vitro cell growth inhibition assay (WST-1) with isobologram analysis of combination effect. The assay is classed as cell-based. Particulars: combined with the test compound (hydrochloride of Compound 22), 72 hours, isobologram method. How it is done: (§1) Measurement of the cell growth inhibition rate of the test compound and a combined compound on a human multiple myeloma cell line (NCI-H929), a human non-small-cell lung cancer cell line (PC-9), a human breast cancer cell line (BT-474), a human renal cancer cell line (VMRC-RCZ), a human chronic myeloid leukemia cell line (K-562) and a human acute myeloid leukemia cell line (MOLM-13) was carried out in the following manner.
(§2) For the culture of NCI-H929, Roswell Park Memorial Institute's Medium (RPMI) 1640 medium (Invitrogen) containing 10% fetal calf serum (FCS, Invitrogen), 10 mmol/L HEPES (Invitrogen), 1 mmol/L sodium pyruvate (Invitrogen), 4.5 g/L glucose (Sigma-Aldrich) and 50 μmol/L 2-mercaptoethanol (Invitrogen) was used. For the culture of PC-9, RPMI1640 medium containing 10% FCS was used. For the culture of BT-474, Dulbecco's Modified Eagle Medium (DMEM) (Invitrogen) containing 10% FCS, 1 mmol/L sodium pyruvate, 1.2 mmol/L oxalacetic acid (Sigma-Aldrich), 0.01 mg/mL insulin (Sigma-Aldrich), 10% NCTC-135 medium (Sigma-Aldrich), 4 mmol/L L-glutamine (Invitrogen), 1.5 g/L sodium hydrogencarbonate (Invitrogen) and 4.5 g/L glucose was used.
(§3) NCI-H929 cells were suspended to 12.5×10^4 cells/mL with culture medium (PC-9, 0.625×10^4 cells/mL; BT-474, 12.5×10^4 cells/mL; VMRC-RCZ, 2.5×10^4 cells/mL; MOLM-13, 12.5×10^4 cells/mL; K-562, 6.25×10^4 cells/mL), and the cell suspensions were seeded to the wells of 96-well U-bottom plates (Nalge Nunc International) in an amount of 80 μL/well, followed by incubation in a 5% CO2 incubator at 37° C. for 5 hours (PC-9, BT-474 and VMRC-RCZ, 24 hours; MOLM-13 and K-562, 4 hours).
(§4) The solutions of the test compound and the combined compound diluted with culture medium were added to the plates in an amount of 10 μL/well, respectively, followed by further incubation in a 5% CO2 incubator at 37° C. for 72 hours. WST-1 reagent {4-[3-(4-iodophenyl)-2-(4-nitrophenyl)-2H-5-tetrazolio]-1,3-benzene disulfonate sodium salt} (Roche Diagnostics) was added to the wells in an amount of 10 μL/well and the plates were incubated in a CO2 incubator for 2 hours at 37° C. The absorbance at 450 nm (control wavelength: 655 nm) was measured using a microplate spectrophotometer SPECTRA max 340PC (Molecular Devices). Separately, the solvent used for preparation of each compound solution alone was added to the wells, and the absorbance was measured in the same manner as above after 72-hour incubation carried out in the same manner as above and also immediately after the addition of the solvent. The cell growth inhibition rate on the cells in the compound-added groups (groups treated with the test compound alone, the combined compound alone, or both compounds) was calculated according to the following equation.
(§5) The combined effect was analyzed using the isobologram method [International Journal of Radiation Oncology, Biology, Physics, Vol. 5, p. 85 (1979)]. Judgment of the efficacy of combination therapy was carried out according to the method described in International Journal of Radiation Oncology, Biology, Physics, Vol. 5, p. 85 (1979), Ibid., Vol. 5, p. 1145 (1979), etc.
(Tetrazolium dyes change colour on reduction, which living cells bring about.)

The subject of assay [2] is human multiple myeloma NCI-H929 cells. The assay is described as follows: Antitumor effect in a mouse model transplanted with human multiple myeloma NCI-H929 cells (combination with bortezomib). Type of assay: in vivo, Fox C.B-17/Icr-scidJcl mice. Particulars: day 14; test compound 50 mg/kg i.v. and bortezomib 1 mg/kg i.v., once a day on days 0, 3, 7 and 10.
Description: On the day before the transplantation of cancer cells, 0.3 mg/mouse of an anti-asialo GM1 antibody (ca. 10 mg protein/1 mL vial) (Wako Pure Chemical Industries, Ltd.) was intraperitoneally administered to Fox C.B-17/Icr-scidJcl mice (Clea Japan, Inc.). NCI-H929 cells were cultured in RPMI1640 medium containing 10% fetal calf serum (FCS) in a 5% CO2 incubator at 37° C. and then transplanted into the abdominal subcutaneous tissue of the mice in an amount of 1×10^7 cells/mouse. Ten days after the transplantation, the longer diameter and shorter diameter of the tumor subcutaneously grown were measured with slide calipers, and the tumor volume was calculated according to the following equation.
(§8) At the same time, the body weight of each mouse was measured, and the mice were divided into the following groups of 5 mice each so that the mean tumor volume and the mean body weight become uniform. The day was defined as day 0 of the administration test, and administration was started.
The test compound was dissolved in physiological saline (Otsuka Pharmaceutical Co., Ltd.) at a concentration of 5 mg/mL and intravenously administered from the caudal vein in a dose of 0.01 mL/g body weight of mouse (50 mg/kg) once a day on days 0, 3, 7 and 10. […]
In assay [3] the test system is human acute myeloid leukemia cell line (MOLM-13). The assay is described as follows: In vitro cell growth inhibition assay (WST-1) with isobologram analysis of combination effect. To be noted: combined with the test compound (hydrochloride of Compound 22), 72 hours, isobologram method. Type of assay: cell-based. As to the method:
as §1
(§6) For the culture of VMRC-RCZ, Minimum Essential Medium (MEM) (Invitrogen) containing 10% FCS, 0.1 mmol/L Non-Essential Amino Acids (NEAA, Invitrogen), 4 mmol/L HEPES, 2 mmol/L L-glutamine and 1.5 g/L sodium hydrogencarbonate was used. For the culture of K-562, Iscove's Modified Dulbecco's Medium (IMDM) (Invitrogen) containing 10% FCS was used. For the culture of MOLM-13, RPMI1640 medium containing 10% FCS was used.
(§7) NCI-H929 cells were suspended to 12.5×10^4 cells/mL with culture medium (PC-9, 0.625×10^4 cells/mL; BT-474, 12.5×10^4 cells/mL; VMRC-RCZ, 2.5×10^4 cells/mL; MOLM-13, 12.5×10^4 cells/mL; K-562, 6.25×10^4 cells/mL), and the cell suspensions were seeded to the wells of 96-well U-bottom plates (Nalge Nunc International) in an amount of 80 μL/well, followed by incubation in a 5% CO2 incubator at 37° C. for 5 hours (PC-9, BT-474 and VMRC-RCZ, 24 hours; MOLM-13 and K-562, 4 hours). […]

In assay [4] the test system is human non-small-cell lung cancer cell line (PC-9). The assay is described as above. Type of assay: cell-based. Particulars: combined with the test compound (hydrochloride of Compound 22), 72 hours, isobologram method. As to the method:
as §1, §2, §3, §4, §5

Assay [5] relates to human lung cancer NCI-H596 cells. The assay is described as follows: Antitumor effect in a mouse model transplanted with human lung cancer NCI-H596 cells. Type of assay: in vivo, BALB/cAJcl-nu mice. To be noted: day 11; test compound 100 mg/kg i.v. twice a day x 5 days; gefitinib 100 mg/kg oral once a day x 5 days.
Description: NCI-H596 cells were cultured in RPMI1640 medium containing 10% fetal calf serum (FCS) in a 5% CO2 incubator at 37° C. and then transplanted into the abdominal subcutaneous tissue of BALB/cAJcl-nu mice (Clea Japan, Inc.) in an amount of 1×10^7 cells/mouse. From the mice in which tumor grew, the tumor was excised and the tumor tissue was cut into ca. 8 mm^3 tissue pieces and then transplanted into the abdominal subcutaneous tissue of BALB/cAJcl-nu mice (Clea Japan, Inc.) using a trocar. Seventeen days after the transplantation, the longer diameter and shorter diameter of the subcutaneous tumor were measured with slide calipers, and the tumor volume was calculated according to the following equation.
as §8
(§9) The test compound was dissolved in physiological saline (Otsuka Pharmaceutical Co., Ltd.) at a concentration of 10 mg/mL and intravenously administered from the caudal vein in a dose of 0.01 mL/g body weight of mouse (100 mg/kg) twice a day for consecutive days from day 0 to day 4. […]
The subject of assay [6] is human chronic myeloid leukemia cell line (K-562). The experiment in a line: In vitro cell growth inhibition assay (WST-1) with isobologram analysis of combination effect. The assay is classed as cell-based. Particulars: combined with the test compound (hydrochloride of Compound 22), 72 hours, isobologram method. How it is done:
as §1, §6, §7

For assay [7], the system named is human breast cancer cell line (BT-474). The assay is described as above. Particulars: combined with the test compound (hydrochloride of Compound 22), 72 hours, isobologram method. Type of assay: cell-based. As to the method:
as §1, §3
The solutions of the test compound and the combined compound diluted with culture medium were added to the plates in an amount of 10 μL/well, respectively, followed by further incubation in a 5% CO2 incubator at 37° C. for 72 hours. WST-1 reagent {4-[3-(4-iodophenyl)-2-(4-nitrophenyl)-2H-5-tetrazolio]-1,3-benzene disulfonate sodium salt} (Roche Diagnostics) was added to the wells in an amount of 10 μL/well and the plates were incubated in a CO2 incubator for 2 hours at 37° C.

Assay [8] concerns human multiple myeloma NCI-H929 cells. The experiment in a line: Antitumor effect in a mouse model transplanted with human multiple myeloma NCI-H929 cells (combination with melphalan). The assay is classed as in vivo, Fox C.B-17/Icr-scidJcl mice. Particulars: day 14; test compound 50 mg/kg i.v. on days 0, 3, 7 and 10; melphalan 4 mg/kg i.v. on day 0. How it is done:
On the day before the transplantation of cancer cells, 0.3 mg/mouse of an anti-asialo GM1 antibody (ca. 10 mg protein/1 mL vial) (Wako Pure Chemical Industries, Ltd.) was intraperitoneally administered to Fox C.B-17/Icr-scidJcl mice (Clea Japan, Inc.). NCI-H929 cells were cultured in RPMI1640 medium containing 10% fetal calf serum (FCS) in a 5% CO2 incubator at 37° C. and then transplanted into the abdominal subcutaneous tissue of the mice in an amount of 1×10^7 cells/mouse.
The day was defined as day 0 of the administration test, and administration was started.
The test compound was dissolved in physiological saline (Otsuka Pharmaceutical Co., Ltd.) at a concentration of 5 mg/mL and intravenously administered from the caudal vein in a dose of 0.01 mL/g body weight of mouse (50 mg/kg) once a day on days 0, 3, 7 and 10.
Melphalan was suspended in physiological saline (Otsuka Pharmaceutical Co., Ltd.) at a concentration of 0.4 mg/mL and intravenously administered from the caudal vein in a dose of 0.01 mL/g body weight of mouse (4 mg/kg) once a day on day 0. • A. Negative control group (Control): neither test compound nor melphalan administered • B. Test compound alone group: 50 mg/kg (once a day/administered on days 0, 3, 7 and 10) • C. […]
On and after day 0, the tumor volume was measured twice a week. […]

Assay [9] deals with human breast cancer KPL-4 cells. The experiment in a line: Antitumor effect in a mouse model transplanted with human breast cancer KPL-4 cells. Particulars: day 10; test compound 100 mg/kg i.v. twice a day x 5 days; paclitaxel 25 mg/kg i.v. days 0 and 3; trastuzumab 50 mg/kg i.v. days 0, 3, 7, 10, 14 and 17. Type of assay: in vivo, BALB/cAJcl-nu mice.
Description: KPL-4 cells were cultured in DMEM containing 10% fetal calf serum (FCS) in a 5% CO2 incubator at 37° C. and then transplanted into the abdominal subcutaneous tissue of BALB/cAJcl-nu mice (Clea Japan, Inc.) in an amount of 1×10^7 cells/mouse. From the mice in which tumor grew, the tumor was excised and the tumor tissue was cut into ca. 8 mm^3 tissue pieces and then transplanted into the abdominal subcutaneous tissue of BALB/cAJcl-nu mice (Clea Japan, Inc.) using a trocar. Eighteen days after the transplantation, the longer diameter and shorter diameter of the subcutaneous tumor were measured with slide calipers, and the tumor volume was calculated according to the following equation.
as §8, §9
For assay [10], the system named is human renal cancer cell line (VMRC-RCZ). The experiment in a line: In vitro cell growth inhibition assay (WST-1) with isobologram analysis of combination effect. The assay is classed as cell-based. To be noted: combined with the test compound (hydrochloride of Compound 22), 72 hours, isobologram method. As to the method: as §1
For the culture of VMRC-RCZ, Minimum Essential Medium (MEM) (Invitrogen) containing 10% FCS, 0.1 mmol/L Non-Essential Amino Acids (NEAA, Invitrogen), 4 mmol/L HEPES, 2 mmol/L L-glutamine and 1.5 g/L sodium hydrogencarbonate was used. […]
The solutions of the test compound and the combined compound diluted with culture medium were added to the plates in an amount of 10 μL/well, respectively, followed by further incubation in a 5% CO2 incubator at 37° C. for 72 hours. […] The absorbance at 450 nm (control wavelength: 655 nm) was measured using a microplate spectrophotometer SPECTRA max 340PC (Molecular Devices). Separately, the solvent used for preparation of each compound solution alone was added to the wells, and the absorbance was measured in the same manner as above after 72-hour incubation carried out in the same manner as above and also immediately after the addition of the solvent. […]

Structures are written as SMILES.

For `CC(C)C[C@H](NC(=O)[C@H](Cc1ccccc1)NC(=O)c1cnccn1)B(O)O` [Bortezomib, bortezomib], the “Combination effect of test compound and each compound” value (shortened to “Combination effect”) in assay [1] is on record as “Envelope of additivity”. Moreover, the “T/C (V/V0 of each group divided by V/V0 of the negative control group)” value in [2] is 0.45. With `Nc1ccn([C@@H]2O[C@H](CO)[C@@H](O)[C@@H]2O)c(=O)n1` [Cytarabine, cytarabine], the “Combination effect” value in [3] is on record as “Envelope of additivity”.

With `CC(=O)O[C@@]12CO[C@@H]1C[C@H](O)[C@@]1(C)C(=O)[C@H](O)C3=C(C)[C@@H](OC(=O)[C@H](O)[C@@H](NC(=O)OC(C)(C)C)c4ccccc4)C[C@@](O)([C@@H](OC(=O)c4ccccc4)[C@H]21)C3(C)C` [Docetaxel, docetaxel], the “Combination effect” value in assay [4] is listed as “Envelope of additivity”. Still for that read-out and setting: with `C#Cc1cccc(Nc2ncnc3cc(OCCOC)c(OCCOC)cc23)c1` [Erlotinib, erlotinib] the entry was “Sub-additive”. With `COc1cc2ncnc(Nc3ccc(F)c(Cl)c3)c2cc1OCCCN1CCOCC1` [Gefitinib, gefitinib], the “Combination effect” value in assay [4] is “Envelope of additivity”. Also, the “T/C (V/V0 of each group divided by V/V0 of the negative control group)” value in [5] is 0.74. In the case of `Cc1ccc(NC(=O)c2ccc(CN3CCN(C)CC3)cc2)cc1Nc1nccc(-c2cccnc2)n1` [Imatinib, imatinib], in assay [6], the “Combination effect” value is “Sub-additive”. With `CS(=O)(=O)CCNCc1ccc(-c2ccc3ncnc(Nc4ccc(OCc5cccc(F)c5)c(Cl)c4)c3c2)o1` [Lapatinib, lapatinib], the “Combination effect” value in [7] is recorded as “Envelope of additivity”. Regarding `Nc1cccc2c1CN(C1CCC(=O)NC1=O)C2=O` (stereo not shown) [Lenalidomide, lenalidomide], the “Combination effect” value in assay [1] was “Envelope of additivity”.

Regarding `N[C@@H](Cc1ccc(N(CCCl)CCCl)cc1)C(=O)O` [Melphalan, melphalan], the “Combination effect” value in [1] is listed as “Envelope of additivity”. The “T/C (V/V0 of each group divided by V/V0 of the negative control group)” value in assay [8] was determined as 0.63. As for `CC(=O)O[C@H]1C(=O)[C@@]2(C)[C@H]([C@H](OC(=O)c3ccccc3)[C@]3(O)C[C@H](OC(=O)[C@H](O)[C@@H](NC(=O)c4ccccc4)c4ccccc4)C(C)=C1C3(C)C)[C@]1(OC(C)=O)CO[C@@H]1C[C@@H]2O` [Paclitaxel, paclitaxel], the “Combination effect” value in assay [4] is given as “Envelope of additivity”. Besides, in assay [9], the “T/C (V/V0 of each group divided by V/V0 of the negative control group)” value turned out to be 0.094. Take `CNC(=O)c1cc(Oc2ccc(NC(=O)Nc3ccc(Cl)c(C(F)(F)F)c3)cc2)ccn1` [Sorafenib, sorafenib]: the “Combination effect” value in [10] was “Supra-additive”. Consider `O=C(CCCCCCC(=O)Nc1ccccc1)NO` [Vorinostat, vorinostat], for which the “Combination effect” value in assay [1] is on record as “Sub-additive”.
